Data: PubChem BioAssay (NCI)
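Protocol summary: plate cells (96-well), add compound at 5 concentrations, incubate 48 h, interpolate endpoints linearly. GI50: concentration for 50% inhibition of growth. At the TGI there is no net growth.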

What was measured:
Assay in all cases: growth of human tumour cells (NCI), 48 h
[1] = tested on: RXF 393 renal
[2] = tested on: BT-549 breast
[3] = tested on: HT29 colon
[4] = tested on: SK-MEL-2 melanoma
[5] = tested on: LOX IMVI melanoma
[6] = tested on: NCI-H522 lung
[7] = tested on: OVCAR-5 ovarian
[8] = tested on: COLO 205 colon
[9] = tested on: SK-MEL-5 melanoma
[10] = tested on: 786-0 renal
[11] = tested on: TK-10 renal
[12] = tested on: IGROV1 ovarian
[13] = tested on: SN12C renal
[14] = tested on: OVCAR-8 ovarian
[15] = tested on: CAKI-1 renal
[16] = tested on: KM12 colon
[17] = tested on: SR leukemia
[18] = tested on: UACC-62 melanoma
[19] = tested on: HL-60(TB) leukemia
[20] = tested on: MALME-3M melanoma
[21] = tested on: U251 CNS
[22] = tested on: A549 NSCLC
[23] = tested on: PC-3 prostate
[24] = tested on: ACHN renal
[25] = tested on: CCRF-CEM leukemia
[26] = tested on: UACC-257 melanoma
[27] = tested on: DU-145 prostate
[28] = tested on: SF-539 CNS
[29] = tested on: NCI-H226 lung
[30] = tested on: HOP-92 NSCLC
[31] = tested on: M14 melanoma
[32] = tested on: RPMI-8226 leukemia
[33] = tested on: MDA-MB-435
[34] = tested on: NCI/ADR-RES ovarian
[35] = tested on: UO-31 renal
[36] = tested on: SK-MEL-28 melanoma
[37] = tested on: SF-295 CNS
[38] = tested on: SK-OV-3 ovarian
[39] = tested on: NCI-H460 lung
[40] = tested on: A498 renal
[41] = tested on: HCC-2998 colon
[42] = tested on: SNB-19 CNS
[43] = tested on: HOP-62 NSCLC
[44] = tested on: SF-268 CNS
[45] = tested on: OVCAR-4 ovarian
[46] = tested on: HCT-116 colon
[47] = tested on: OVCAR-3 ovarian
[48] = tested on: SW-620 colon
[49] = tested on: NCI-H23 lung
[50] = tested on: SNB-75 CNS
[51] = tested on: HCT-15 colon
[52] = tested on: HS 578T breast
[53] = tested on: MOLT-4 leukemia

COc1ccc2nc3cc(Cl)ccc3c(N3CCN(c4ccnc(N5CCN(C)CC5)n4)CC3)c2c1 showed a GI50 [1] of 1.36 µM, a TGI [1] of 2.78 µM and a GI50 [2] of 3.16 µM. The TGI [2] was 13.4 µM, the GI50 [3] was 1.74 µM and the TGI [3] was 3.67 µM. For the same molecule, the GI50 [4] was 3.72 µM, the TGI [4] was 12.2 µM and the GI50 [5] was 1.89 µM. For the same molecule, the TGI [5] was 3.45 µM, the GI50 [6] was 1.61 µM and the TGI [6] was 3.13 µM. The GI50 [7] was 1.81 µM, the TGI [7] was 3.9 µM and the GI50 [8] was 1.94 µM. For the same molecule, the TGI [8] was 3.67 µM, the GI50 [9] was 11.3 µM and the TGI [9] was 28 µM. The GI50 [10] was 1.61 µM, the TGI [10] was 3 µM and the GI50 [11] was 1.76 µM. For the same molecule, the TGI [11] was 3.2 µM, the GI50 [12] was 2.24 µM and the TGI [12] was 5.08 µM. It also gave a GI50 [13] of 2.84 µM, a TGI [13] of 8.37 µM and a GI50 [14] of 1.93 µM. It also gave a TGI [14] of 3.98 µM, a GI50 [15] of 1.57 µM and a TGI [15] of 3.07 µM. For the same molecule, the GI50 [16] was 2.09 µM, the TGI [16] was 4.38 µM and the GI50 [17] was 2.19 µM. For the same molecule, the TGI [17] was 5.94 µM, the GI50 [18] was 1.86 µM and the TGI [18] was 3.69 µM. The GI50 [19] was 2.14 µM, the TGI [19] was 5.03 µM and the GI50 [20] was 2.2 µM. For the same molecule, the TGI [20] was 4 µM, the GI50 [21] was 1.77 µM and the TGI [21] was 3.43 µM. For the same molecule, the GI50 [22] was 14.8 µM, the TGI [22] was 36 µM and the GI50 [23] was 1.92 µM. For the same molecule, the TGI [23] was 3.87 µM, the GI50 [24] was 1.75 µM and the TGI [24] was 3.33 µM. For the same molecule, the GI50 [25] was 1.61 µM, the TGI [25] was 4.15 µM and the GI50 [26] was 11.4 µM. The TGI [26] was 24.4 µM, the GI50 [27] was 1.84 µM and the TGI [27] was 3.36 µM. It also gave a GI50 [28] of 1.77 µM, a TGI [28] of 3.3 µM and a GI50 [29] of 49.6 µM. The TGI [29] was > 100 µM, the GI50 [30] was 1.59 µM and the TGI [30] was 3.36 µM. It also gave a GI50 [31] of 2.04 µM, a TGI [31] of 4.06 µM and a GI50 [32] of 2.04 µM. For the same molecule, the TGI [32] was 4.84 µM, the GI50 [33] was 1.79 µM and the TGI [33] was 3.66 µM. For the same molecule, the GI50 [34] was 3.66 µM, the TGI [34] was 12.4 µM and the GI50 [35] was 1.77 µM. The TGI [35] was 3.41 µM, the GI50 [36] was 1.73 µM and the TGI [36] was 3.29 µM. The GI50 [37] was 19.5 µM, the TGI [37] was 54.1 µM and the GI50 [38] was 12.9 µM. For the same molecule, the TGI [38] was 26.2 µM, the GI50 [39] was 2.29 µM and the TGI [39] was 5.43 µM. For the same molecule, the GI50 [40] was 10.3 µM, the TGI [40] was 40.7 µM and the GI50 [41] was 1.99 µM. It also gave a TGI [41] of 3.69 µM, a GI50 [42] of 2.23 µM and a TGI [42] of 5.44 µM. The GI50 [43] was 3.51 µM, the TGI [43] was 12.4 µM and the GI50 [44] was 1.99 µM. The TGI [44] was 3.89 µM, the GI50 [45] was 1.61 µM and the TGI [45] was 3.02 µM. For the same molecule, the GI50 [46] was 1.61 µM, the TGI [46] was 3.05 µM and the GI50 [47] was 1.84 µM. The TGI [47] was 3.25 µM, the GI50 [48] was 1.8 µM and the TGI [48] was 3.53 µM. For the same molecule, the GI50 [49] was 2.02 µM, the TGI [49] was 4.17 µM and the GI50 [50] was 1.47 µM. For the same molecule, the TGI [50] was 3.05 µM, the GI50 [51] was 1.6 µM and the TGI [51] was 3.21 µM. For the same molecule, the GI50 [52] was 2.7 µM, the TGI [52] was 8.29 µM and the GI50 [53] was 2.38 µM. For the same molecule, the TGI [53] was 5.81 µM.
